ChEMBL document CHEMBL1201862, “PubChem BioAssay data set” (2004)
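A five-concentration, 48-hour dose response in 96-well plates underlies each endpoint, interpolated linearly between surrounding concentrations. Abbreviation: GI50, concentration required for 50% inhibition of growth.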 The source made the active and inactive calls. Rule as the data show it: active = GI50 up to about 1.1 µM and inactive = higher.

Tests used:
Test in all cases: NCI tumour cell line growth inhibition, 48 h
[1] = system: TK-10
[2] = system: RPMI-8226
[3] = system: MCF7
[4] = system: KM12
[5] = system: OVCAR-8
[6] = system: ACHN
[7] = system: SK-MEL-2
[8] = system: HCC 2998
[9] = system: A549
[10] = system: NCI/ADR-RES
[11] = system: SF-268
[12] = system: HCT-116
[13] = system: MDA-N
[14] = system: NCI-H460
[15] = system: K562
[16] = system: SW-620
[17] = system: IGROV-1
[18] = system: UO-31
[19] = system: M14
[20] = system: DMS-273

Measured: GI50

CCCn1cnc2c(SCc3ccc(Cl)cc3)nc(N)nc21
inactive: [1] 13.5 µM | [2] 16.1 µM | [3] 31 µM | [4] 21.5 µM | [5] 40.1 µM | [6] 16.3 µM | [7] 18.4 µM | [8] 20 µM | [9] 39.4 µM | [10] 22.6 µM | [11] 36.3 µM | [12] 19.4 µM | [13] 21.9 µM | [14] 18.7 µM | [15] 16.2 µM | [16] 36.3 µM | [17] 40.4 µM | [18] 5.85 µM | [19] 32.4 µM

O=C1c2ccccc2C(=O)N1CCCSc1ccccc1
inactive: [1] > 100 µM | [2] 42.8 µM | [3] 78.3 µM | [4] 94.4 µM | [5] > 100 µM | [6] > 100 µM | [7] > 100 µM | [8] 25.1 µM | [9] 76.2 µM | [10] 52 µM | [11] > 100 µM | [12] 94.2 µM | [13] 91.4 µM | [14] 90.6 µM | [15] 77.1 µM | [16] > 100 µM | [17] 93.8 µM | [18] 60.5 µM | [19] 66.7 µM

c1cc2c(cc1NC1=NCCO1)CCCC2
inactive: [1] 10.6 µM | [2] 2.92 µM | [4] 2.77 µM | [5] 3.66 µM | [6] 7.59 µM | [7] 2.97 µM | [8] 2.55 µM | [9] 4.8 µM | [10] 2.18 µM | [11] 5.56 µM | [12] 2.76 µM | [13] 1.41 µM | [14] 3.3 µM | [15] 2.45 µM | [16] 9.73 µM | [17] 4.37 µM | [18] 6.97 µM | [19] 2.88 µM
active: [3] 0.619 µM

CN(C)c1ccc(/C(F)=C(F)/C(F)=C(F)/C(F)=C(\F)c2ccc(Br)cc2)cc1
inactive: [1] > 75.5 µM | [2] 32.7 µM | [3] 9.46 µM | [4] 9.53 µM | [5] 33 µM | [6] 52.8 µM | [7] 25.9 µM | [8] 18.2 µM | [9] 31.5 µM | [10] 6.4 µM | [11] 51.8 µM | [12] 5.33 µM | [13] 2.43 µM | [14] 26.2 µM | [15] 13.2 µM | [16] 22.1 µM | [17] 27.6 µM | [18] 25.1 µM | [19] 16.1 µM

COc1ccc2c3c1O[C@H](c1ccc(O)cc1)[C@H]3[N+](C)(C)CC2
inactive: [1] > 100 µM | [2] 47.4 µM | [3] > 100 µM | [4] > 100 µM | [5] > 100 µM | [6] > 100 µM | [7] > 100 µM | [8] > 100 µM | [9] > 100 µM | [10] > 100 µM | [11] > 100 µM | [12] > 100 µM | [13] > 100 µM | [14] > 100 µM | [15] 34.1 µM | [16] > 100 µM | [17] > 100 µM | [18] > 100 µM | [19] > 100 µM

N#C/C(=C1\SC(C(N)=O)=C(N)N1c1ccccc1)c1nc2ccccc2[nH]1
inactive: [1] 87.9 µM | [5] > 100 µM | [6] > 100 µM | [7] > 100 µM | [9] > 100 µM | [11] > 100 µM | [12] > 100 µM | [14] > 100 µM | [15] > 100 µM | [20] > 100 µM | [16] > 100 µM | [17] 37.3 µM | [18] 99.1 µM | [19] > 100 µM

CCCCOc1ccc(/C=C/C2=[N+](CCO)CCO2)cc1
inactive: [1] > 100 µM | [2] 26.8 µM | [3] 29.4 µM | [4] 34 µM | [5] 70.1 µM | [6] 91.6 µM | [7] > 100 µM | [8] 22.5 µM | [9] 55.3 µM | [10] 78 µM | [11] > 100 µM | [12] 39.8 µM | [13] > 100 µM | [14] 68.7 µM | [15] 24 µM | [16] 33.6 µM | [17] 85.5 µM | [18] 32.1 µM | [19] 76.7 µM

C/C=C/C=C/C1=NN(c2cccc(S(=O)(=O)O)c2)C2(C1)C(Cl)C(=O)N2c1nc2ccccc2s1 (stereo unspecified)
inactive: [1] 14.3 µM | [2] 17.3 µM | [3] 13.4 µM | [4] 13.6 µM | [5] 22 µM | [6] 15.4 µM | [7] 15.6 µM | [8] 16.9 µM | [9] 14.6 µM | [10] 27.2 µM | [11] 16.6 µM | [12] 14.4 µM | [13] 15.5 µM | [14] 15.4 µM | [15] 28.8 µM | [16] 20.2 µM | [17] 11 µM | [18] 2 µM | [19] 15.1 µM

CCCCn1c(C)c2c(c1C)C(=O)N(CC(O)CN1CCc3ccccc3C1)C2=O (stereo unspecified)
active: [7] 0.292 µM
inactive: [1] 67.3 µM | [2] 76.9 µM | [3] 33.3 µM | [4] 57 µM | [5] > 100 µM | [6] 36.7 µM | [8] 39.8 µM | [9] 88.3 µM | [10] 59.7 µM | [11] > 100 µM | [12] 47.9 µM | [13] 70 µM | [14] 86.7 µM | [15] 47.2 µM | [16] > 100 µM | [17] > 100 µM | [18] 59 µM | [19] 40.1 µM

NC1CCC2(O)c3ccccc3C2C1 (stereo unspecified)
inactive: [1] > 100 µM | [2] > 100 µM | [4] > 100 µM | [5] > 100 µM | [6] > 100 µM | [7] > 100 µM | [9] > 100 µM | [11] > 100 µM | [12] > 100 µM | [14] > 100 µM | [15] > 100 µM | [20] > 100 µM | [16] > 100 µM | [18] > 100 µM | [19] > 100 µM

CCC/C=C/C=C/C1CC(O)C(O)C(=O)C1CO (stereo unspecified)
inactive: [1] > 100 µM | [2] > 100 µM | [3] > 100 µM | [4] > 100 µM | [5] > 100 µM | [6] > 100 µM | [7] > 100 µM | [8] > 100 µM | [9] > 100 µM | [10] > 100 µM | [11] > 100 µM | [12] > 100 µM | [13] > 100 µM | [14] > 100 µM | [15] > 100 µM | [16] > 100 µM | [17] > 100 µM | [18] > 100 µM | [19] > 100 µM

COc1ccc(/C=C(/C(=O)c2ccc(Cl)cc2)N2C=CC=CC2=C(C#N)C#N)cc1OC
inactive: [1] 6.32 µM | [2] 2.47 µM | [3] 3.66 µM | [4] 19.1 µM | [5] 4.27 µM | [6] 3.31 µM | [7] 15.3 µM | [8] 1.99 µM | [9] 14.4 µM | [10] 10.4 µM | [11] 3.55 µM | [12] 2.06 µM | [13] 4.55 µM | [14] 12.9 µM | [16] 1.91 µM | [17] 5.09 µM | [18] 1.5 µM | [19] 3.7 µM
active: [15] 0.698 µM

COC(=O)C1C2OC(C)(C)OC2CN1S(=O)(=O)c1ccc(C)cc1 (stereo unspecified)
inactive: [1] > 100 µM | [2] > 100 µM | [3] > 100 µM | [4] > 100 µM | [5] > 100 µM | [6] > 100 µM | [7] > 100 µM | [8] > 100 µM | [9] > 100 µM | [10] > 100 µM | [11] > 100 µM | [12] > 100 µM | [13] > 100 µM | [14] > 100 µM | [15] > 100 µM | [16] > 100 µM | [17] 14.5 µM | [18] > 100 µM | [19] > 100 µM

Nc1cc(N)c(/N=N/c2cccc3c(S(=O)(=O)O)cccc23)cc1/N=N/c1cc([N+](=O)[O-])ccc1O
inactive: [1] 47 µM | [2] 35.6 µM | [3] 32.6 µM | [4] 33.2 µM | [5] 23.4 µM | [6] 22.2 µM | [7] 22.4 µM | [8] 23.2 µM | [9] 25.5 µM | [10] 21.9 µM | [11] 6.62 µM | [12] 32.7 µM | [13] 46.9 µM | [14] 29.1 µM | [15] 38.7 µM | [16] 28.8 µM | [17] 15.6 µM | [18] 19 µM | [19] 26.1 µM

CC(=O)O[C@H]1C(=O)[C@@]2(C)[C@H]([C@H](OC(=O)c3ccccc3)[C@]3(O)C[C@H](OC(=O)[C@H](O)[C@@H](NC(=O)c4ccco4)c4ccccc4)C(C)=C1C3(C)C)[C@]1(OC(C)=O)CO[C@@H]1C[C@@H]2O
active: [1] 0.022 µM | [2] < 0.00125 µM | [3] < 0.00125 µM | [4] < 0.00125 µM | [5] < 0.00125 µM | [6] 0.043 µM | [7] < 0.00125 µM | [8] < 0.00125 µM | [9] < 0.00125 µM | [11] 0.00162 µM | [12] < 0.00125 µM | [13] < 0.00125 µM | [14] < 0.00125 µM | [15] < 0.00125 µM | [16] < 0.00125 µM | [17] 0.0019 µM | [18] 0.627 µM | [19] < 0.00125 µM
inactive: [10] 2.64 µM
